Assay results as given in PubChem BioAssay AID1963863 (Molecular Pharmacology Branch, DTP, NCI, 2024).

Tested on: 931267-113-T-J1-PDC KRAS spheroid with HUVEC/MSC, viability
Assay: Anticancer human tumor 931267-113-T-J1-PDC patient-derived colon adenocarcinoma cell line growth inhibition [KRAS2]
Conditions: for viability, T/C: stronger effect = lower value
Procedure, shortened: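 Combination screen of spheroid viability in tumor-cell co-cultures with endothelial (HUVEC) and mesenchymal stem cell stroma. Each agent was tested in half-log dilutions, topping at clinical Cmax or at 10 microM without a known Cmax.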

[1] = curve of first compound, second compound 0.1 µM
[2] = curve of first compound, second compound 0.316 µM
[3] = curve of first compound, second compound 1 µM
[4] = curve of first compound, second compound 3.16 µM
[5] = second compound 0.1 µM, first compound 0.0316 µM
[6] = second compound 0.1 µM, first compound 0.1 µM
[7] = second compound 0.1 µM, first compound 0.316 µM
[8] = second compound 0.1 µM, first compound 1 µM
[9] = second compound 0.1 µM, first compound 3.16 µM
[10] = second compound 0.1 µM, first compound 10 µM
[11] = second compound 0.316 µM, first compound 0.0316 µM
[12] = second compound 0.316 µM, first compound 0.1 µM
[13] = second compound 0.316 µM, first compound 0.316 µM
[14] = second compound 0.316 µM, first compound 1 µM
[15] = second compound 0.316 µM, first compound 3.16 µM
[16] = second compound 0.316 µM, first compound 10 µM
[17] = second compound 1 µM, first compound 0.0316 µM
[18] = second compound 1 µM, first compound 0.1 µM
[19] = second compound 1 µM, first compound 0.316 µM
[20] = second compound 1 µM, first compound 1 µM
[21] = second compound 1 µM, first compound 3.16 µM
[22] = second compound 1 µM, first compound 10 µM
[23] = second compound 3.16 µM, first compound 0.0316 µM
[24] = second compound 3.16 µM, first compound 0.1 µM
[25] = second compound 3.16 µM, first compound 0.316 µM
[26] = second compound 3.16 µM, first compound 1 µM
[27] = second compound 3.16 µM, first compound 3.16 µM
[28] = second compound 3.16 µM, first compound 10 µM
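Further: compound exposure lasted 7 days before the readout.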
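Wherever viability, T/C is given: 100% = DMSO vehicle control viability.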

Row | Structure (SMILES) | IC50 [1] [nM] | IC50 [2] [nM] | IC50 [3] [nM] | IC50 [4] [nM] | viability, T/C [5] [%] | viability, T/C [6] [%] | viability, T/C [7] [%] | viability, T/C [8] [%] | viability, T/C [9] [%] | viability, T/C [10] [%] | viability, T/C [11] [%] | viability, T/C [12] [%] | viability, T/C [13] [%] | viability, T/C [14] [%] | viability, T/C [15] [%] | viability, T/C [16] [%] | viability, T/C [17] [%] | viability, T/C [18] [%] | viability, T/C [19] [%] | viability, T/C [20] [%] | other results
1 | CC1(C)CCC(CN2CCN(c3ccc(C(=O)NS(=O)(=O)c4ccc(NCC5CCOCC5)c([N+](=O)[O-])c4)c(Oc4cnc5[nH]ccc5c4)c3)CC2)=C(c2ccc(Cl)cc2)C1 + C=CC(=O)N1CCN(c2nc(OCC3CCCN3C)nc3c2CCN(c2cccc4cccc(C)c24)C3)CC1CC#N | 2360 | 1900 | 1550 | < 31.6 | 110 | 120 | 97.5 | 106 | 31 | 0.82 | 114 | 94.8 | 89.3 | 94.6 | 14.8 | 0.28 | 102 | 84.3 | 94.5 | 78 | IC50 (curve of first compound, second compound 0.0316 µM): 1960 nM; viability, T/C (second compound 0.0316 µM, first compound 0.0316 µM): 107%; viability, T/C (second compound 0.0316 µM, first compound 0.1 µM): 93.6%; viability, T/C (second compound 0.0316 µM, first compound 0.316 µM): 102%; viability, T/C (second compound 0.0316 µM, first compound 1 µM): 83%; viability, T/C (second compound 0.0316 µM, first compound 3.16 µM): 26.2%; viability, T/C (second compound 0.0316 µM, first compound 10 µM): 0.37%; viability, T/C [21]: 4.65%; viability, T/C [22]: 0.18%; viability, T/C [23]: 0.38%; viability, T/C [24]: 0.51%; viability, T/C [25]: 0.75%; viability, T/C [26]: 0.2%; viability, T/C [27]: 0.34%; viability, T/C [28]: 0.26%
2 | O=C(c1cc(Cc2n[nH]c(=O)c3ccccc23)ccc1F)N1CCN(C(=O)C2CC2)CC1 + CNCc1ccccc1-c1csc(C(C)Nc2nc(C)nc3cc(OC)c(OC)cc23)c1 | > 10000 | > 10000 | > 10000 | < 31.6 | 98.8 | 100 | 86.8 | 85.9 | 61.9 | 72.2 | 106 | 88.5 | 98 | 88.5 | 82.7 | 80 | 114 | 113 | 108 | 96.6 | IC50 (curve of first compound, second compound 10 µM): < 31.6 nM; viability, T/C [21]: 112%; viability, T/C [22]: 75.6%; viability, T/C [23]: 0.55%; viability, T/C [24]: 0.34%; viability, T/C [25]: 0.4%; viability, T/C [26]: 0.47%; viability, T/C [27]: 0.43%; viability, T/C [28]: 0.38%; viability, T/C (second compound 10 µM, first compound 0.0316 µM): 0.16%; viability, T/C (second compound 10 µM, first compound 0.1 µM): 0.2%; viability, T/C (second compound 10 µM, first compound 0.316 µM): 0.21%; viability, T/C (second compound 10 µM, first compound 1 µM): 0.61%; viability, T/C (second compound 10 µM, first compound 3.16 µM): 0.27%; viability, T/C (second compound 10 µM, first compound 10 µM): 0.23%
3 | COc1cc(OC)cc(N(CCNC(C)C)c2ccc3ncc(-c4cnn(C)c4)nc3c2)c1 |  |  |  |  |  |  |  |  |  |  |  |  |  |  |  |  |  |  |  |  | viability, T/C (compound 0.1 µM): 101% [middle of 5 runs]; viability, T/C (compound 0.316 µM): 107% [middle of 5 runs]; viability, T/C (compound 1 µM): 107% [middle of 5 runs]; viability, T/C (compound 10 µM): 0.45% [middle of 4 runs]; IC50 (curve of compound): 4.66 µM [middle of 4 runs]
